Where two headings read alike, the source gives them in different places.
Legend:
[1] = biological target: T1, Aryl hydrocarbon receptor (Rattus norvegicus, UniProt P41738); conditions: for EC10, linear / logEC10 / EC10, linear transformed: Bioassay AhR, dosing range all; for EC10, linear: linear model fit; for logEC10: log-logistic model fit; for log(1/EC10) AhR: input of the ToxPi score, values up to 1.00; for SR-ScoreAhR: SR-Score, sigma k=1, x=5; for Specificity ratio (SRbaseline) SRAhR: against baseline cytotoxicity; for EC10, AhR: effect
T1 sequence (P41738 10-853): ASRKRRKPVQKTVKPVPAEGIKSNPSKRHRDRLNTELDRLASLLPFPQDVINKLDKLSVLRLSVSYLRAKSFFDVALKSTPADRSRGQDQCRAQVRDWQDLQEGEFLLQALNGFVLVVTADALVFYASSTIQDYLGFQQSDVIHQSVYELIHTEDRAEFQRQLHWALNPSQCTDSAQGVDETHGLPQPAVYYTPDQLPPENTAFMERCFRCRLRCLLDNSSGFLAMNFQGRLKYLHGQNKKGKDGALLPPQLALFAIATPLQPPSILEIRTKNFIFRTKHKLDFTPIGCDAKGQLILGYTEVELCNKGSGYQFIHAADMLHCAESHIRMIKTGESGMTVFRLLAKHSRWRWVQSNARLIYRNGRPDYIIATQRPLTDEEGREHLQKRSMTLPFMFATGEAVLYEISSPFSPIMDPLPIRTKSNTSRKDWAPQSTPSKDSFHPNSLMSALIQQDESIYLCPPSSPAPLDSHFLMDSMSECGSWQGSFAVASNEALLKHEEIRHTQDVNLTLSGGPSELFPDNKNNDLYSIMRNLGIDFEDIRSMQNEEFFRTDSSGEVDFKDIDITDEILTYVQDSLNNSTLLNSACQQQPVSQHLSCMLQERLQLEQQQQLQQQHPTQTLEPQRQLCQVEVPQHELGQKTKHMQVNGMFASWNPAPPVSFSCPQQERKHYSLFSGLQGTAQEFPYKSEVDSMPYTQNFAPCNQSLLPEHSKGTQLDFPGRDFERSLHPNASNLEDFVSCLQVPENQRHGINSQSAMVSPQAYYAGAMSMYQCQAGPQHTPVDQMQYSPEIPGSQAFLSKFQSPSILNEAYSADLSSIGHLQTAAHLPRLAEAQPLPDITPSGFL
Description: All bioassay media components and the ERα-UAS-bla GripTite and PPARγ-UAS-bla cells were obtained from Thermo Fisher Scientific (Waltham, MA, USA). AREc32 reporter gene cells based on MCF7 were provided by C. Roland Wolf (Cancer Research UK); AhR CALUX cells (H4L7.5c2 derived from H4IIe) were provided by Michael Denison (UC Davis, USA); and SH-SY5Y cells were purchased from Sigma-Aldrich.
(§1) Cell culture conditions and bioassay protocols including response detection are provided in Text S2.1–2.4 and Table S3. − Cell viability was determined from cell confluency using an IncuCyte S3 Live-Cell Analysis System (Sartorius AG, Essen, Germany) before and after exposure, except for SH-SY5Y cells (live–dead staining with Nuclear Green LcS1 and propidium iodide, Abcam, UK). For metabolic activation experiments, cell viability was assessed using the ToxBLAzer DualScreen Kit (Thermo Fisher Scientific) to capture the remaining toxicity in ERα-UAS-bla GripTite after treatment with the aCYP catalyst (details in Text S2.4).
For ARE, the concentration that triggered an induction ratio of 1.5 (ECIR1.5) was used as the benchmark value, as detailed in Text S2.5. IC10 values also served as a threshold for data analysis in all assays; only concentrations below IC10 were considered when deriving EC10 or ECIR1.5. […]
S2: Cell culture and bioassays
S2.1: Cell Culturing Conditions
All suppliers and sources are given in detail in SI-Excel S3. The bioassay media for the different assays were prepared as follows: Assay medium for ER alpha-UAS-bla GripTite (ERα) and PPAR gamma-UAS-bla 293H (PPARγ) was prepared with 98% Opti-MEM, supplemented with 2% charcoal-stripped FBS, and 100 U/mL penicillin-streptomycin. MitoOxTox and AhR assay medium was comprised of 90% DMEM with GlutaMAX, supplemented with 10% FBS, and 100 U/mL penicillin-streptomycin. Neurotoxicity assay medium consisted of the neurobasal […]
(1 picture or pasted object on this page, not shown here) […]
medium, supplemented with 2% B-27 Supplement and 2 mM GlutaMAX Supplement. SH - SY5Y cells were differentiated with 10 µM all-trans retinoic acid prior to the assay.
S2.2: Cell Seeding and Incubation. For all bioassays, cell suspensions in the respective assay medium were dispensed into each well of 384-well plates using a MultiFlo Dispenser (Biotek, (now Agilent), Winooski, VT, U.S.). After seeding, the plates were incubated at 37° C and 5% CO₂ for […]. The final cell densities and plate types were as follows: Black poly-D-lysine coated 384-well plates (Product No. 354663, Corning Inc., NYC, U.S.) were used for PPARγ:
6500 cells/well, ERα: 5000 cells/well. White 384-well plates with a clear bottom (Product No.
781098, Greiner, Kremsmünster, Austria) were utilized for the MitoOxTox assay: 2650

[2] = test system: ERα-UAS-bla GripTite cells
Procedure: as §1, with “S2.4). […]” for “S2.4).”
The TK-Ratio method was used to evaluate the impact of abiotic CYP oxidation on the potency of tested compounds. […]
For experiments with the preceding aCYP activation, ERα cell viability was additionally calculated from the readout of the ToxBLAzer reagent. The ToxBLAzer assay was conducted following the manufacturer's instructions (Thermo Fisher, Waltham, MA, U.S.).13 Fluorescence intensity was recorded at the start of the assay ( Fwavelength(0h)) and after a 2-hour incubation at […]
eq. S11 for normalization.
Cell viability = F665nm(2h, sample)-F665nm(0h, average cell-free) (S11) F665nm(2h, average unexposed)-F665nm(0h, average cell-free) […]
the specific endpoint to avoid artifacts from cytotoxicity burst. 15
S2.5: Concentration-response curves (CRCs)
To avoid bias from cytotoxicity burst at higher concentrations, all concentrations exceeding the IC10 for cytotoxicity were excluded in the CRC modeling of effects but otherwise cytotoxicity and effects were fitted with the same model equations (response stands for cytotoxicity or effect). For ERα, AhR, ARE and PPARγ preferably a linear model was fitted to the linear portion of CRC up to maximum 30% effect (eq. S12),16 but in some cases it was necessary to choose a sigmoidal log-concentration-response model, specifically a log-logistic model (eq. S13), to derive effect concentrations and cytotoxicity. […]
This was done using the
AutomatedBioassayScreening19 published by Braun et al.,20 which also included an algorithm to choose the best model between eq. S12 and eq. S13.
Response (%) = slope × C (S12) […]
logEC =logEC − 1 ∙log (max−min − 100%) (S14)

[3] = Table S10, TKcytotoxicity-Ratio
[4] = Table S11, TKcytotoxicity-Ratio

Compound	EC10, linear [1]	logEC10 [1]	log(1/EC10) AhR [1]	TKcytotoxicity [2, 3]	EC10, linear transformed [1]	other results
CC1(C)C(O)C(C)(C)C1O (racemic) [r-TMCD, 2,2,4,4-Tetramethyl-1,3-cyclobutanediol (racemate)]	no effect	no effect				
O=S(=O)(c1ccc(O)cc1)c1ccccc1O [2,4-BPS, 2,4'-Dihydroxydiphenyl sulfone]	no effect	no effect	0.74			TKcytotoxicity ([2]; human): 1.61
CC(C)(c1ccc(OCC2CO2)cc1)c1ccc(OCC2CO2)cc1 (centres unmarked) [BADGE, Bisphenol A diglycidyl ether]	no effect	no effect				
CC(C)CC(C)(c1ccc(O)cc1)c1ccc(O)cc1 [BP-MIBK, 4,4'-(1,3-Dimethylbutylidene)diphenol]	no effect	no effect	0.86			TKcytotoxicity ([2]; human): 0.48
CC(C)(c1ccc(O)cc1)c1ccc(O)cc1 [BPA, 4,4'-(Propane-2,2-diyl)diphenol, reference compound]	2.64E-04	no effect	0.79	1.13	3.80E-04	TKcytotoxicity (TK-Ratio for cytotoxicity) ([2]; IC10 before/after aCYP oxidation): ≤ 2; TKcytotoxicity [2, 4]: 0.63; EC10, AhR (M) [1]: 2.64 × 10^–4 M; SR-ScoreAhR [1]: 0.00737; Specificity ratio (SRbaseline) SRAhR [1]: 0.10; EC10, AhR [1]: 264 µM; Specificity ratio (SRcytotoxicity) SRAhR ([1]; rat, 24 h): 0.00; SR (AhR) ([1]; specificity ratio): ≤ 10
Oc1ccc(C(c2ccc(O)cc2)(C(F)(F)F)C(F)(F)F)cc1 [BPAF, 4,4'-(1,1,1,3,3,3-Hexafluoropropane-2,2-diyl)diphenol]	no effect	no effect	0.92	1.14		
CC(c1ccccc1)(c1ccc(O)cc1)c1ccc(O)cc1 [BPAP, 4,4'-(1-Phenylethylidene)bisphenol]	no effect	no effect				TKcytotoxicity [2, 4]: 0.76
CCC(C)(c1ccc(O)cc1)c1ccc(O)cc1 [BPB, 4,4'-(Butane-2,2-diyl)diphenol]	no effect	no effect	0.83	0.24		
CC(c1ccc(O)cc1)c1ccc(O)cc1 [BPE, 4,4′-Ethylidenbisphenol]	6.19E-05	-4.12		0.63	7.73E-05	EC10, AhR (M) [1]: 6.19 × 10^–5 M; SR-ScoreAhR [1]: 0.0256; EC10, AhR [1]: 61.9 µM
Oc1ccc(Cc2ccc(O)cc2)cc1 [BPF, Bis(4-hydroxyphenyl)methane]	1.67E-04	masked by cytotoxicity	0.66	0.75	2.17E-04	TKcytotoxicity [2, 4]: 0.44
CC(C)c1cc(C(C)(C)c2ccc(O)c(C(C)C)c2)ccc1O [BPG, 2,2-Bis(4-hydroxy-3-isopropylphenyl)propane]	no effect	no effect	0.96	0.62		TKcytotoxicity [2, 4]: 0.67
CC(C)(c1ccc(O)c(-c2ccccc2)c1)c1ccc(O)c(-c2ccccc2)c1 [BPPH, 2,2-Bis(2-hydroxy-5-biphenylyl)propane]	9.54E-06	-5.02	0.99	0.11	9.38E-06	EC10, AhR (M) [1]: 9.54 × 10^–6 M; SR-ScoreAhR [1]: 0.0254; Specificity ratio (SRbaseline) SRAhR [1]: 0.43; Specificity ratio (SRcytotoxicity) SRAhR ([1]; against experimental cytotoxicity): 1.35; EC10, AhR [1]: 9.54 µM
O=S(=O)(c1ccc(O)cc1)c1ccc(O)cc1 [BPS, 4,4'-Sulfonyldiphenol]	no effect	no effect	0.68			
C=CCOc1ccc(S(=O)(=O)c2ccc(O)cc2)cc1 [BPS-MAE, 4-[[4-(Allyloxy)phenyl]sulfonyl]phenol]	no effect	no effect	0.71	2.91		
O=S(=O)(c1ccc(O)cc1)c1ccc(OCc2ccccc2)cc1 [BPS-MPE, 4-[4-(benzyloxy)benzenesulfonyl]phenol]	no effect	no effect	0.91	0.45		
Oc1ccc(Sc2ccc(O)cc2)cc1 [BPT, 4,4'-Thiodiphenol]	no effect	masked by cytotoxicity	0.82	1.35	9.56E-05	TKcytotoxicity [2, 4]: 1.00
Oc1ccc(C2(c3ccc(O)cc3)CCCCC2)cc1 [BPZ, 1,1'-Bis(4-hydroxyphenyl)cyclohexane]				0.53		
CC(C)(c1cc(Br)c(O)c(Br)c1)c1cc(Br)c(O)c(Br)c1 [TBBPA, 3,3',5,5'-Tetrabromobisphenol A]				0.52		
CC1(C)[C@H](O)C(C)(C)[C@H]1O [Trans TMCD]	no effect	-2.00			8.49E-03	
